In one data set the test system is A375. Briefly: In vitro anticancer activities of complexes (Experiment 2). Conditions: A375, 24 hours. It counts as cell-based, human. The source says: (§1) The cell lines used in the experiments were obtained from Peking University.
Data set [1] concerns A549. The description is as above. The settings on record: A549, 24 hours. It counts as cell-based, human.
Source text: as §1

Data set [2] deals with HeLa. Described as above. It counts as cell-based, human. The settings on record: 24 hours.
Source text: as §1

In data set [3] the test system is MCF7. Described as above. Conditions: MCF7, 24 hours. It counts as cell-based, human.
Source text: as §1

The next data set concerns SW480. Described as above. Conditions: SW480, 24 hours. It counts as cell-based, human.
Source text: as §1

The next data set has as its system HepG2. Described as above. It counts as cell-based. Conditions: HepG 2, 24 hours.
Source text: as §1

In the next data set the test system is human microglia CHEM5. Described as above. It counts as cell-based. Conditions: CHEM 5, 24 hours.
Source text: as §1

The test system of data set [4] is normal colonic epithelial cells NCM460. The description is as above. It counts as cell-based. Conditions: NCM460, 24 hours.
Source text: as §1

Data set [5] has as its system human umbilical vein endothelial cells HUVEC. The data set is described as above. The settings on record: 24 hours. It counts as cell-based. On the procedure:
as §1
The safety index (SI) was calculated according to the following equation:
^bSafety Index (SI)=IC50(HUVEC)/IC50(Hela)

For data set [6], the system named is HepG2 liver cancer cell lines. Briefly: Cytotoxicity, CCK-8 kit, multi-cell lines (Experiment 1). It counts as cell-based. The settings on record: HepG 2, 24 hours.
For data set [7], the system named is MDA-MB-231 highly metastatic breast cancer cell line. Described as above. It counts as cell-based. Conditions: MDA-MB-231, 24 hours.
Data set [8] has as its system DU145 prostate cancer cells. Described as above. It counts as cell-based. Conditions: DU145, 24 hours.
Data set [9] has as its system HEK293 human renal epithelial cell line. The description is as above. It counts as cell-based. The settings on record: HEK293, 24 hours.
Data set [10] deals with COS7 renal epithelial cells. Described as above. It counts as cell-based. The settings on record: COS7, 24 hours.
A further data set relates to Raw264.7. Described as above. It counts as cell-based. Conditions: Raw264.7, 24 hours.
The next data set has as its system HeLa tumors. Briefly: In vivo tumor suppression experiment. Details: species or system nude mice. Conditions: after 21 days of treatment, once every 2 days. On the procedure: Nude mice carrying HeLa tumors were divided into 4 […], each with 8 mice. […] The dosage was […], and the administration frequency was once every 2 days. The volume of the tumor was calculated with the length and width of the tumor according to the following formula:
Tumor volume (mm^3)=½×length×width^2.
After 21 days, the nude mice of each group were died and dissected. The tumor inhibition was calculated according to the following formula: […]
in which Wc and Wt were the masses of the tumors in the control group and the experimental group, respectively.

The nature of data set [11]: Hematological analysis of liver and kidney function. It counts as in vivo, nude mice. The settings on record: blood samples after treatment. The text has this:
The research indicators included alanine aminotransferase (ALT), urea nitrogen (BUN), triglycerides (TG), creatine kinase (CK), aspartate aminotransferase (AST), creatinine (CREA), high Density lipoprotein (HDLC), and lactate dehydrogenase (LDH).
The kidney function was related to the blood indicators of BUN and CREA and the liver function. The results about alanine aminotransferase (ALT) and aspartate aminotransferase (AST) in the blood of nude mice were shown in FIG. 8.

Data set [12] can be described thus: H&E staining analysis of major organs. It counts as in vivo, nude mice. Conditions: after treatment. The source says:
Further, the parts such as heart, spleen, lung, liver, and kidney were subjected to the H&E staining analysis.

In data set [13] the test system is HeLa. The data set can be described thus: Cytotoxicity, CCK-8 kit, multi-cell lines (Experiment 1). Conditions: 24 hours.
Protocol: (§2) The cells were cultured in a cell incubator containing 5% CO2 under the atmosphere of saturated steam at a constant temperature of 37° C. The medium used was a high-sugar Dulbecco's modified Eagle's medium containing 10% fetal bovine serum, 100 μg/mL penicillin and 100 U/mL streptomycin. The cells were grown in a six-well culture plate and passaged every other day. The cytotoxicity of the complex was evaluated by the CCK-8 kit, in which the cells were passed to a 96-well plate containing about 25,000 of cells and 200 µL of medium in each well. After the cells had grown stably and adherently, the medium was changed to complete mediums with different concentrations of the complex to be detected, and a 3-well parallel experiment was performed for each concentration. After culturing in the incubator for 24 hours, the medium was removed and the cells were washed with 100 L of PBS buffer (pH=7.4) for 3 times. Subsequently, 100 L mixture of 10% CCK-8 solution and 90% serum-free medium was added into both the test wells and the control wells, and then was placed in an incubator for culturing. After about 1 hour, the absorption of 450 nm wavelength light in the test and control wells were measured by using a microplate reader, and the cell viabilities (CV) under different concentrations of the complex were calculated according to the following formula: […]
For data set [14], the system named is A375 human malignant melanoma cell line. The data set is described as above. The settings on record: A375, 24 hours.
Protocol: as §2
Data set [15] concerns MCF7. The description is as above. Conditions: MCF7, 24 hours.
Protocol: as §2
Data set [16] deals with A549. The description is as above. Conditions: A549, 24 hours.
Protocol: as §2

On to `C#CCN(C)c1ccc2c(c1)[O][Ga-3]13([N+]#CC)([N+]#CC)[O]c4cc(N(CC)CC)ccc4C=[N+]1C(C#N)=C(C#N)[N+]3=C2.Cl` [Complex 2], for which the 50% inhibitory concentration (IC50) in the data set on A375 amounted to 0.83 µM; with A549 [1], 2.29 µM; in the data set with HeLa [2], 6.35 µM; in the data set with MCF7 [3], 5.29 µM; in the data set with SW480 it was 2.2 µM; in the data set on HepG2, 8.19 µM. The IC50 with human microglia CHEM5 worked out at 2.82 µM; in data set [4], 4.26 µM; in data set [5] it was 1.88 µM.

With `CC#[N+][Ga-3]123([N+]#CC)[O]c4ccccc4C=[N+]1C(C#N)=C(C#N)[N+]2=Cc1ccccc1[O]3.Cl` [Complex 4], the IC50 in the data set with A375 turned out to be 2.2 µM; in the data set on A549 [1] it was 1.16 µM; in the data set with HeLa [2], 75.3 µM; with MCF7 [3], 134 µM; with SW480, 0.59 µM; in the data set with HepG2, 43.5 µM. Besides, the results for the concentration for half-maximal inhibition (IC50) (in the data set with human microglia CHEM5; in data set [4]; in [5]) were 1.64 µM, 27.7 µM and 6.37 µM, respectively.

On to `CC#[N+][Ga-3]123([N+]#CC)[O]c4cc(N(C)C)ccc4C=[N+]1C(C#N)=C(C#N)[N+]2=Cc1ccc(N(C)C)cc1[O]3.Cl` [Complex 6], for which the 50% inhibitory concentration (IC50) in the data set on A375 came out at 0.07 µM; in the data set on A549 [1] it was 1.38 µM; in the data set with HeLa [2] it was 1.38 µM; in the data set on MCF7 [3] it was 0.47 µM; with SW480, 4.85 µM; in the data set with HepG2, 7.75 µM. The figures for the IC50 (in the data set on human microglia CHEM5; in data set [4]; in [5]) were 2.27 µM, 6.44 µM and 4.09 µM, respectively.

On to `CC#[N+][Ga-3]123([N+]#CC)[O]c4cc(N5CCCC5)ccc4C=[N+]1C(C#N)=C(C#N)[N+]2=Cc1ccc(N2CCCC2)cc1[O]3.Cl` [Complex 7], for which the half-maximal inhibitory concentration (IC50) was 1.4 µM in the data set on A375; 3.56 µM with A549 [1]; 8.61 µM in the data set with HeLa [2]; 14.2 µM with MCF7 [3]; 7.58 µM in the data set on SW480; 10.3 µM in the data set on HepG2. The half-inhibitory concentration (IC50) in the data set on human microglia CHEM5 came out at 5.71 µM; in data set [4], 23.1 µM; in data set [5], 2.47 µM.

Consider `C#CCN(C)c1ccc2c(c1)[O][Ga-3]13([N+]#CC)([N+]#CC)[O]c4cc(N(C)CC#C)ccc4C=[N+]1C(C#N)=C(C#N)[N+]3=C2.Cl` [Complex 8], for which the half-inhibitory concentration (IC50) in the data set with A375 was determined as 229 µM; with A549 [1], 139 µM; in the data set with HeLa [2], 260 µM; in the data set on MCF7 [3], 190 µM; in the data set on SW480, 572 µM; in the data set with HepG2, 291 µM. Moreover, the values for the IC50 (in the data set with human microglia CHEM5; in [4]; in data set [5]) were 236 µM, 71 µM and 203 µM, respectively.

For the molecule `CC#[N+][Ga-3]123([N+]#CC)[O]c4cc(N(CC)CC)ccc4C=[N+]1c1ccccc1[N+]2=Cc1ccc(N(CC)CC)cc1[O]3.Cl` [Complex 9], the IC50 came to 1.37 µM in the data set with A375; 1.22 µM with A549 [1]; 12.4 µM in the data set with HeLa [2]; 34.8 µM in the data set on MCF7 [3]; 4.89 µM with SW480; 46.1 µM in the data set on HepG2. Besides, the 50% inhibitory concentration (IC50) was 1.81 µM in the data set with human microglia CHEM5, 33.5 µM in data set [4] and 9.33 µM in [5].

Take `CC#[N+][Ga-3]123([N+]#CC)[O]c4c(ccc5c4SCCN5C)C=[N+]1C(C#N)=C(C#N)[N+]2=Cc1ccc2c(c1[O]3)SCCN2C.Cl` [Complex 10]: the IC50 in the data set with A375 is 91.2 µM; with A549 [1] it was 124 µM; in the data set with HeLa [2], 87.7 µM; in the data set on MCF7 [3], 61.7 µM; with SW480 it was 451 µM; in the data set on HepG2, 72.7 µM. For the same molecule, the IC50 in the data set on human microglia CHEM5 came to 51.9 µM; in data set [4], 322 µM; in data set [5] it was 332 µM.

As to `CC#[N+][Ga-3]123([N+]#CC)[O]c4cc5c(cc4C=[N+]1C(C#N)=C(C#N)[N+]2=Cc1cc2c(cc1[O]3)N(C)CCS2)SCCN5C.Cl` [Complex 12], the half-maximal inhibitory concentration (IC50) in the data set on A375 is 10.8 µM; in the data set with A549 [1] it was 39.3 µM; with HeLa [2], 45.8 µM; with MCF7 [3], 43.5 µM; in the data set with SW480, 42.6 µM; in the data set on HepG2, 34.6 µM. The figures for the IC50 (with human microglia CHEM5; in [4]; in [5]) were 44.7 µM, 89.9 µM and 58.9 µM, respectively.

`CC#[N+][Ga-3]123([N+]#CC)[O]c4cc(N(C)CCCC)ccc4C=[N+]1C(C#N)=C(C#N)[N+]2=Cc1ccc(N(C)CCCC)cc1[O]3.Cl` [Complex 13]: the IC50 in the data set with A375 came out at 0.9 µM; in the data set with A549 [1] it was 2.72 µM; in the data set with HeLa [2] it was 21.5 µM; in the data set with MCF7 [3] it was 1.74 µM; in the data set with SW480, 4.1 µM; with HepG2 it was 20.9 µM. For the same molecule, the IC50 amounted to 2.28 µM in the data set with human microglia CHEM5, 20.6 µM in data set [4] and 3.5 µM in data set [5].

For `CC#[N+][Ga-3]123([N+]#CC)[O]c4ccccc4C=[N+]1c1ccccc1[N+]2=Cc1ccccc1[O]3.Cl` [Complex 14], the IC50 with A375 was found to be 24 µM; with A549 [1], 76.5 µM; in the data set on HeLa [2], 19.5 µM; in the data set with MCF7 [3], 53 µM; in the data set with SW480 it was 257 µM; in the data set with HepG2, 38.6 µM. Also, the half-inhibitory concentration (IC50) with human microglia CHEM5 stood at 65.1 µM; in [4], 212 µM; in data set [5] it was 163 µM.

For the molecule `CC#[N+][Ga-3]123([N+]#CC)[O]c4cc(N(CC)CC)ccc4C=[N+]1c1ccncc1[N+]2=Cc1ccc(N(CC)CC)cc1[O]3.Cl` [Complex 15], the concentration for half-maximal inhibition (IC50) is 215 µM in the data set with A375; 273 µM in the data set on A549 [1]; 97.4 µM with HeLa [2]; 204 µM in the data set with MCF7 [3]; 325 µM with SW480; 89.7 µM with HepG2. Further, the IC50 with human microglia CHEM5 was determined as 298 µM; in data set [4], 340 µM; in data set [5], 75.8 µM.

As for `N.N.[Cl][Pt][Cl]` [cisplatin, reference compound], the IC50 in data set [6] stood at 5.3 ± 0.1 µM; in data set [7], 27 ± 1.3 µM; in [8], 2.7 ± 0.1 µM; in data set [9], 2 ± 0.1 µM; in data set [10] it was 6.7 ± 0.6 µM; in the data set with Raw264.7 it was 10.1 ± 1.2 µM. The 50% inhibitory concentration (IC50) was 5.3 ± 0.3 µM with HeLa [13], 3.4 ± 0.3 µM in [14], 9.1 ± 0.9 µM with MCF7 [15] and 9.4 ± 1.5 µM with A549 [16]. Besides, in the data set with HeLa tumors, the tumor inhibition was determined as 29.9%. Besides, in data set [11], the “effects on liver and kidney function (blood indicators ALT, AST, BUN, CREA)” value is “acute toxicity against the liver and the kidney”. In addition, the “H&E staining of liver and kidney” value in data set [12] is “liver edema and degeneration and kidney swelling”.

These data come from patent publication US20210253603A1, “MAIN GROUP METAL COMPLEX AND ITS PREPARATION METHOD AND USE” (PEKING UNIVERSITY, priority 2018, published 2021).
